Active and inactive are the calls of the source.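 Rule for the calls: active = binding readouts below 60% of the midpoint between blocked and unblocked controls, with summed weighted score above 1; inactive = the rest.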
Tested on: 2C TCR mouse CD8+ T cells, vesicle binding, flow cytometry
Test: modulators of T cell-vesicle binding via LFA-1, confirmation, powder samples, single concentration, mouse 2C TCR, flow cytometry (AID 504568);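 note: lower values mean less vesicle binding and point to an inhibitor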;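 for double-positive events (T cell-vesicle binding): the gate for binding is set so anti-LFA-1 blocked control wells show 10% double positives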
Conditions: stronger effect = lower value; for mean fluorescence percent response: measured here: CD8+ cell vesicle fluorescence mean

SMILES | double-positive events (T cell-vesicle binding) | mean fluorescence percent response [%]
COc1ccc([N+](=O)[O-])cc1NC(=O)c1ccc(N(Cc2ccccc2C)S(C)(=O)=O)cc1 | 23% | 105
COc1ccc(N2CC(C(=O)NC(C)C(=O)NCc3ccccc3OC)CC2=O)cc1 (configuration not stated) | 27.3% (inactive) | 177
CCOCC(=O)Nc1ccc(S(=O)(=O)N2CCC(c3nc4ccccc4[nH]3)CC2)cc1 | 16.4% | 97.1
O=C(NCCN1CCN(c2ccccc2)CC1)c1cccc(Br)c1 | 24.2% (inactive) | 152
O=C(NNS(=O)(=O)c1ccc2ccccc2c1)c1cccs1 | 23.5% (inactive) | 149
CCN(CC)C(=O)N1CCN(S(=O)(=O)c2ccc(C)cc2)CC1 | 26% (inactive) | 129
CCOC(=O)c1c(N2C(=O)CC(Sc3ccccc3C(=O)O)C2=O)sc2c1CCCC2 (configuration not stated) | 9.25% | 59.9
Cc1cc(=O)oc2c3c(cc(OCC(=O)NCc4ccncc4)c12)OC(C)(C)CC3 | 20.8% | 128
Cc1cc(C)n(C(=O)c2sc3cc(F)ccc3c2Cl)n1 | 24.5% | 90.2
CCOC(=O)N1CCN(C(=O)c2ccc(CS(=O)Cc3ccc(C)cc3)o2)CC1 (configuration not stated) | 26.5% (inactive) | 146
COc1ccccc1CNC(=O)COc1ccc(C)cc1 | 24.8% (inactive) | 173

Reference: PubChem BioAssay AID504568 (NMMLSC, 2011)
